Measurements: the supplement of paper PMC5770543
± gives the standard deviation.

How the values were obtained:
[1] = system: Plasmodium falciparum 3D7; assay: % inhibition of schizont-to-ring transition vs DMSO; higher = more inhibition
Summary of the method: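 Tightly synchronised P. falciparum schizonts (about 40–42 hours post-invasion, 1% parasitemia, 2.5% hematocrit, AlbuMAX-supplemented RPMI) were exposed to compound at 1, 3 or 10 µM, with vehicle and positive controls. Cells were glutaraldehyde-fixed, Triton-permeabilised, stained with Hoechst 33342 and counted by flow cytometry (at least 100,000 events). Schizont-to-ring transition inhibition is new ring formation relative to vehicle controls, averaged over three experiments.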

[2] = system: Toxoplasma gondii RH tachyzoites; assay: % growth inhibition vs DMSO (48 h luciferase); higher = more inhibition; conditions: 10 µM
[3] = molecular target: Toxoplasma gondii RH tachyzoites; assay: EC50 growth inhibition (48 h luciferase)
[4] = system: Plasmodium falciparum 3D7; assay: EC50 growth inhibition (60 h, SYBR Green); conditions: stage: ring-stage start
[5] = system: Toxoplasma gondii RH tachyzoites; assay: plaque count per well; higher = less inhibition; extreme values may be limits of the assay; conditions: 10 µM; 8-10 days
Description: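 T. gondii RH tachyzoites expressing firefly luciferase were grown in HFF monolayers for 48 h with compound. % growth inhibition at 10 µM and EC50 (2-fold dilutions from 10 µM) were read by luminescence relative to 1% DMSO; EC50 listed as 10 (not determined, <80% inhibition) is left out. Plaque assays: 50 tachyzoites per well with 10 µM compound for 8-10 days, giving plaque count and area by crystal violet/ImageJ. Egress: median time to egress after 1 µM A23187 ionophore following 24 h of 10 µM compound (DMSO ~1.8 min; >10 = no egress within 10 min).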
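Throughout, for % growth inhibition vs DMSO (48 h luciferase): tested in triplicate wells of 96-well plates on confluent HFF monolayers, with 1% DMSO wells as negative control in four replicates.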

With `O=C(Nc1ccc(Br)cc1)Nc1cccc(Cl)c1` the “% inhibition of schizont-to-ring transition” value (from here on “% inhibition”) ([1]; 1 µM) was 24.1%, the “% inhibition” value ([1]; 3 µM) was 22.5% and the “% inhibition” value ([1]; 10 µM) was 58.1%. The “% growth inhibition” value [2] was 96.13 ± 0.57% and the EC50 growth inhibition [3] was 3770 nM.

With `Cc1ccc(S(=O)(=O)c2c(COC(=O)c3cccc(C)c3)c(-c3ccccc3)nn2C)cc1` the “% inhibition” value ([1]; 1 µM) was less than 0%, the “% inhibition” value ([1]; 3 µM) was 1.67% and the “% inhibition” value ([1]; 10 µM) was 32.1%. The “% growth inhibition” value [2] was 99.44 ± 0.48% and the EC50 growth inhibition [3] was 2060 nM.

With `c1ccc(-c2ccc(-c3nc4ccccc4[nH]3)cc2)cc1` the “% inhibition” value ([1]; 1 µM) was 8.54%, the “% inhibition” value ([1]; 3 µM) was 24.5% and the “% inhibition” value ([1]; 10 µM) was 41%. For the same compound, the EC50 growth inhibition [4] was 928 nM, the “plaque count per well” value [5] was 0 and the “% growth inhibition” value [2] was 12.3 ± 15%.

`Cc1cccc(Nc2nc(N)c3ccccc3n2)c1` was tested, and the “% inhibition” value ([1]; 1 µM) was 3.41%, the “% inhibition” value ([1]; 3 µM) was 36.1% and the “% inhibition” value ([1]; 10 µM) was 54.2%. For the same compound, the EC50 growth inhibition [4] was 669 nM, the “plaque count per well” value [5] was 0 and the “% growth inhibition” value [2] was less than 0%.

With `CCOc1ccc(CN2CCN(CC(O)COc3ccc(OCC(O)CN4CCN(Cc5ccc(OCC)cc5)CC4)cc3)CC2)cc1` (centres undefined) the “% inhibition” value ([1]; 1 µM) was less than 0%, the “% inhibition” value ([1]; 3 µM) was 14.6% and the “% inhibition” value ([1]; 10 µM) was 59.9%. For the same compound, the EC50 growth inhibition [4] was 3120 nM, the “plaque count per well” value [5] was 0 and the “% growth inhibition” value [2] was 4.15 ± 5.8%.

`Cc1ccc(Nc2nc(NCCO)c3ccccc3n2)cc1C` was tested, and the “% inhibition” value ([1]; 1 µM) was 54.1%, the “% inhibition” value ([1]; 3 µM) was 66.8% and the “% inhibition” value ([1]; 10 µM) was 69.1%. For the same compound, the EC50 growth inhibition [4] was 194 nM, the “plaque count per well” value [5] was 0 and the “% growth inhibition” value [2] was less than 0%.

With `COc1cccc(C(=O)NC(c2ccc(C)cc2)c2cc(Cl)c3cccnc3c2O)c1` (centres undefined) the “% inhibition” value ([1]; 1 µM) was 30.4%, the “% inhibition” value ([1]; 3 µM) was 42.1% and the “% inhibition” value ([1]; 10 µM) was 49.9%. For the same compound, the EC50 growth inhibition [4] was 7640 nM, the “plaque count per well” value [5] was 0 and the “% growth inhibition” value [2] was less than 0%.

`Cc1cc(C=C2SC(=Nc3ccccc3)N(C3CCCC3)C2=O)c(C)n1-c1ccc(Cl)cc1` was tested, and the “% inhibition” value ([1]; 1 µM) was 17.8%, the “% inhibition” value ([1]; 3 µM) was 26.2% and the “% inhibition” value ([1]; 10 µM) was 37.9%. The EC50 growth inhibition [4] was 5270 nM, the “plaque count per well” value [5] was 23 and the “% growth inhibition” value [2] was less than 0%.

In the case of `OC(CNC1CCCCC1)Cn1c2ccccc2c2ccccc21` (centres undefined), the “% inhibition” value ([1]; 1 µM) is reported as 48.9%, the “% inhibition” value ([1]; 3 µM) is reported as 69% and the “% inhibition” value ([1]; 10 µM) is reported as 75.3%. For the same compound, the EC50 growth inhibition [4] was 985 nM, the “plaque count per well” value [5] was 21 and the “% growth inhibition” value [2] was less than 0%.

For `COc1ccc(NC(=O)C2c3ccccc3C(=O)N(CC(C)C)C2c2cccs2)cc1` (centres undefined), the “% inhibition” value ([1]; 1 µM) was 78.1%, the “% inhibition” value ([1]; 3 µM) was 78% and the “% inhibition” value ([1]; 10 µM) was 76.6%. The EC50 growth inhibition [4] was 46.9 nM, the “plaque count per well” value [5] was 27 and the “% growth inhibition” value [2] was less than 0%.

In the case of `CC(C)=CCN1CCC(C(=O)Nc2ccc(-c3nc4ccccc4[nH]3)cc2)CC1`, the “% inhibition” value ([1]; 1 µM) is reported as 18%, the “% inhibition” value ([1]; 3 µM) is reported as 45.8% and the “% inhibition” value ([1]; 10 µM) is reported as 59.4%. For the same compound, the EC50 growth inhibition [4] was 464 nM, the “plaque count per well” value [5] was 0 and the “% growth inhibition” value [2] was 19.7 ± 20%.

With `CN1c2ccccc2N(C)C1c1ccc2c(c1)OCO2` the “% inhibition” value ([1]; 1 µM) was less than 0%, the “% inhibition” value ([1]; 3 µM) was less than 0% and the “% inhibition” value ([1]; 10 µM) was 18.3%. The EC50 growth inhibition [4] was 9760 nM, the “plaque count per well” value [5] was 23 and the “% growth inhibition” value [2] was less than 0%.

`CCN(CC)CCNc1ncnc2c1[nH]c1ccc(Br)cc12` was tested, and the “% inhibition” value ([1]; 1 µM) was 41.8%, the “% inhibition” value ([1]; 3 µM) was 49.9% and the “% inhibition” value ([1]; 10 µM) was 55.8%. The EC50 growth inhibition [4] was 225 nM, the “plaque count per well” value [5] was 26 and the “% growth inhibition” value [2] was 7.24 ± 12%.

For `COc1ccc(CN2CCN(Cc3ccccc3)CC2)c(O)c1`, the “% inhibition” value ([1]; 1 µM) was 13.1%, the “% inhibition” value ([1]; 3 µM) was 19.6% and the “% inhibition” value ([1]; 10 µM) was 40.3%. For the same compound, the EC50 growth inhibition [4] was 2170 nM, the “plaque count per well” value [5] was 29 and the “% growth inhibition” value [2] was 11.2 ± 5.4%.

With `O=C(CSc1ccc2nnc(-c3cccc(F)c3)n2n1)Nc1ccc2c(c1)OCO2` the “% inhibition” value ([1]; 1 µM) was 32%, the “% inhibition” value ([1]; 3 µM) was 49.9% and the “% inhibition” value ([1]; 10 µM) was 72.7%. The EC50 growth inhibition [4] was 6570 nM, the “plaque count per well” value [5] was 25 and the “% growth inhibition” value [2] was 15.9 ± 9.8%.

For `Cc1ccc(CN2CCC(C(=O)Nc3ccc(-c4cc5ccccc5[nH]4)cc3)CC2)o1`, the “% inhibition” value ([1]; 1 µM) was 21.9%, the “% inhibition” value ([1]; 3 µM) was 44.3% and the “% inhibition” value ([1]; 10 µM) was 68.2%. The EC50 growth inhibition [4] was 2170 nM, the “plaque count per well” value [5] was 38 and the “% growth inhibition” value [2] was less than 0%.
